pIC50: −log10 of the molar value.

We go through twelve compounds from US11739098B2 (BRISTOL-MYERS SQUIBB COMPANY, priority 2017, dated 2023).

Holding throughout (format): cell-based
In one test the target is T1, human TLR8 (Homo sapiens, UniProt Q9NR97).
T1 construct: host or cells: HEK-Blue cells (HEK293-derived reporter line)
T1 sequence (Q9NR97 27-1041): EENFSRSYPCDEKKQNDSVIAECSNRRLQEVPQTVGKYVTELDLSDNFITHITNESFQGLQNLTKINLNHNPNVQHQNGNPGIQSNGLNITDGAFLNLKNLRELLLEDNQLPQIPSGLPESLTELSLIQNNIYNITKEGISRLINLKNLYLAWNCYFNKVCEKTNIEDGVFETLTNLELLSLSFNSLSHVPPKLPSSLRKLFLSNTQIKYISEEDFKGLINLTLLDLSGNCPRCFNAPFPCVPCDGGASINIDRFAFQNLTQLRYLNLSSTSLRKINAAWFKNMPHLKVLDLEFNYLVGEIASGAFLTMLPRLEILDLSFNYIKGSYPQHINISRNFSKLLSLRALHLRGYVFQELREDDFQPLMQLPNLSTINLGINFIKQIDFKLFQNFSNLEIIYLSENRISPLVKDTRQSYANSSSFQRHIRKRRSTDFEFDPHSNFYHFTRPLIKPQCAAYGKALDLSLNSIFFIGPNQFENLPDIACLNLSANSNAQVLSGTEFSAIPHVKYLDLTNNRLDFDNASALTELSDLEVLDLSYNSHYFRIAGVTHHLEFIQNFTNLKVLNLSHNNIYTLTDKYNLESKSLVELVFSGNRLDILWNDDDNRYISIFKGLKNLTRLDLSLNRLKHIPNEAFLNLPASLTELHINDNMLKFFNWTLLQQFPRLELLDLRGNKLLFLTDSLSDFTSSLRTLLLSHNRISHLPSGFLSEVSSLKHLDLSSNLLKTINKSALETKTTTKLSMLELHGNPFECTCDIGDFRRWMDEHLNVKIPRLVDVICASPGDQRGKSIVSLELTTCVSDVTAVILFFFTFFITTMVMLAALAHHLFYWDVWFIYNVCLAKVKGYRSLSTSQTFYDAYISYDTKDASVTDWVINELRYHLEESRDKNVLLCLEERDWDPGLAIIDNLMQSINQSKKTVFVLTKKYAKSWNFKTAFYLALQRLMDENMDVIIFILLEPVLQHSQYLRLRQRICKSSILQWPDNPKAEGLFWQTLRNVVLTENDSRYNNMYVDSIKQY
Kind of test: TLR8 inhibition reporter assay (HEK-Blue cells, SEAP reporter, R848 stimulation). Particulars: HEK-Blue cells overexpressing human TLR8, SEAP reporter, R848 15.9 μM. Summed up: (§1)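 HEK-Blue cells overexpressing human TLR7, TLR8 or TLR9 (NF-κB/AP-1-driven SEAP) pre-treated 30 min at room temperature with compound (0.05 nM–50 μM), then stimulated with gardiquimod 7.5 μM (TLR7), R848 15.9 μM (TLR8) or ODN2006 5 nM (TLR9). SEAP read colorimetrically after 22 h at 37 °C; % inhibition calculated.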
For orientation: Reporter assays use an easily measured gene product as a stand-in for the process of interest.

The target in another test is T2, human TLR9 (Homo sapiens, UniProt Q9NR96).
T2 construct: host or cells: HEK-Blue cells (HEK293-derived reporter line)
T2 sequence (Q9NR96 26-1032): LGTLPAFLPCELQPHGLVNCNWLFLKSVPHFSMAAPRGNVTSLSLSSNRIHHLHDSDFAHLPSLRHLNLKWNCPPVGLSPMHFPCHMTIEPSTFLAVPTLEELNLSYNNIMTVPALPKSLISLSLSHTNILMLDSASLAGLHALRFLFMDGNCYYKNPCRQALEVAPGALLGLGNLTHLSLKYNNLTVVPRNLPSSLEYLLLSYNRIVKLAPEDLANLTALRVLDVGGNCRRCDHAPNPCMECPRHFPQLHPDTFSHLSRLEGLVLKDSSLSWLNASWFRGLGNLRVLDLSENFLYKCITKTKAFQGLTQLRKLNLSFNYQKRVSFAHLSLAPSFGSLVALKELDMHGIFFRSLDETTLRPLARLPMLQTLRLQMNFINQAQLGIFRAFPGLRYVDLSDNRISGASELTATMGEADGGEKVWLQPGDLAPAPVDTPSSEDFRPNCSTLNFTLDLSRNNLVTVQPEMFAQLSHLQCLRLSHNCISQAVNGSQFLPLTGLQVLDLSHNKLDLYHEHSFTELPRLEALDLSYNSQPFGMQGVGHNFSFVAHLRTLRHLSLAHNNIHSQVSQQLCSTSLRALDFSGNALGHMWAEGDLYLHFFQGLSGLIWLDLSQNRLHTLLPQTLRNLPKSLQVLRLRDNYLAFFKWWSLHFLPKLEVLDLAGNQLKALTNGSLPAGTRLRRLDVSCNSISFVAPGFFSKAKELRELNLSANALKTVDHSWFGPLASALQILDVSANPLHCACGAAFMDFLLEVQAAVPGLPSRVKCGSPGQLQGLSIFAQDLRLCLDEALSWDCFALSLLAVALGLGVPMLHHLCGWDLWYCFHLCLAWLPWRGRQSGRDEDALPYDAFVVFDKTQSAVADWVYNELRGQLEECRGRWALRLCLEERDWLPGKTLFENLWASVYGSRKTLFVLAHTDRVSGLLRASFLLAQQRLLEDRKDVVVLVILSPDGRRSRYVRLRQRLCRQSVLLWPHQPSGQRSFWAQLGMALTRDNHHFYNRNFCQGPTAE
Nature of the test: TLR9 inhibition reporter assay (HEK-Blue cells, SEAP reporter, ODN2006 stimulation). To be noted: HEK-Blue cells overexpressing human TLR9, SEAP reporter, ODN2006 5 nM. In a few lines: as §1

A further test addresses T3, human TLR7 (Homo sapiens, UniProt Q9NYK1).
T3 construct: host or cells: HEK-Blue cells (HEK293-derived reporter line)
T3 sequence (Q9NYK1 27-1049): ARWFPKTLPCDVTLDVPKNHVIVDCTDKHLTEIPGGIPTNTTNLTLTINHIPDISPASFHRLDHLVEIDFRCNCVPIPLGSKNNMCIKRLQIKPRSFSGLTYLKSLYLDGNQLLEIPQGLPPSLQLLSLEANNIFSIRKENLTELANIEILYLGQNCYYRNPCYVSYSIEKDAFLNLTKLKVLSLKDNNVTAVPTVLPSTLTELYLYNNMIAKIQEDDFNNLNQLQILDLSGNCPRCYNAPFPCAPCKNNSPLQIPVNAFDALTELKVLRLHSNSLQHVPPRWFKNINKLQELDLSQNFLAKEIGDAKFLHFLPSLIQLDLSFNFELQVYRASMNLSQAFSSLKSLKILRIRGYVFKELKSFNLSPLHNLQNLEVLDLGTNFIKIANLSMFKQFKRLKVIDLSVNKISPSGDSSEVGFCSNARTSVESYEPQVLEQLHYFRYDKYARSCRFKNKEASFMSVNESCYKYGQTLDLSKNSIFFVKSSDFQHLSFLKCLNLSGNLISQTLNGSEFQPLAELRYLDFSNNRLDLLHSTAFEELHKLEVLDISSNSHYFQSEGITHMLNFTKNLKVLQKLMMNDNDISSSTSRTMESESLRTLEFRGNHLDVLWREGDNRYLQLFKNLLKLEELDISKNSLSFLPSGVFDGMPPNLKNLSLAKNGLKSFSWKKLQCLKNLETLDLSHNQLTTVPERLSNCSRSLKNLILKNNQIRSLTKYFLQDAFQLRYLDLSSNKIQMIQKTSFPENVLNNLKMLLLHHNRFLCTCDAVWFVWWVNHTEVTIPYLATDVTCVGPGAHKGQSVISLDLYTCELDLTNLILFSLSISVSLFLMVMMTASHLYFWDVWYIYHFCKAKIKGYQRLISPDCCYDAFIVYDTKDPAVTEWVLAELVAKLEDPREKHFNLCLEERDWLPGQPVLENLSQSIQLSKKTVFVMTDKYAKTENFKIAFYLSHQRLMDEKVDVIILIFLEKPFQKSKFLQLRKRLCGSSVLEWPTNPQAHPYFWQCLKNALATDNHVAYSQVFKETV
Kind of test: TLR7 inhibition reporter assay (HEK-Blue cells, SEAP reporter, gardiquimod stimulation). Particulars: HEK-Blue cells overexpressing human TLR7, SEAP reporter, gardiquimod 7.5 μM. In a few lines:
as §1

In general, pIC50 refers to the negative decadic logarithm of the IC50, by convention in mol/L. A high value points to a small IC50. Regarding `Cc1cc(-c2[nH]c3ccc(C4CCN(C(=O)C[C@H](C)O)CC4)cc3c2C(C)C)cc2ncnn12` [Example 600, (S)-3-hydroxy-1-(4-(3-isopropyl-2-(5-methyl-[1,2,4]triazolo[1,5-a]pyridin-7-yl)-1H-indol-5-yl)piperidin-1-yl)butan-1-one], the negative-log IC50 (pIC50) at human TLR8 is 6.00 to 7.00; against human TLR9, 4.30 to 6.00; on human TLR7, over 7.00.

`Cc1nc2cc(-c3[nH]c4ccc(C5CCN(C(=O)CC(C)(C)O)CC5)cc4c3C(C)C)ccn2n1` [Example 601, 3-hydroxy-1-(4-(3-isopropyl-2-(2-methyl-[1,2,4]triazolo[1,5-a]pyridin-7-yl)-1H-indol-5-yl)piperidin-1-yl)-3-methylbutan-1-one]: the values for the pIC50 on human TLR8, against human TLR9 and at human TLR7 were under 5.51, 4.30 to 6.00 and over 7.00, respectively.

Consider `Cc1nc2cc(-c3[nH]c4ccc(C5CCN(C(=O)C[C@H](C)O)CC5)cc4c3C(C)C)ccn2n1` [Example 602, (S)-3-hydroxy-1-(4-(3-isopropyl-2-(2-methyl-[1,2,4]triazolo[1,5-a]pyridin-7-yl)-1H-indol-5-yl)piperidin-1-yl)butan-1-one], for which the pIC50 on human TLR8 is under 5.51; on human TLR9 it was under 4.30; against human TLR7, over 7.00.

In the case of `C[C@@H](O)CC(=O)N1CCC(c2ccc3[nH]c(-c4cc(F)c5nccn5c4)c(CC(F)F)c3c2)CC1` [Example 603, (R)-1-(4-(3-(2,2-difluoroethyl)-2-(8-fluoroimidazo[1,2-a]pyridin-6-yl)-1H-indol-5-yl)piperidin-1-yl)-3-hydroxybutan-1-one], the pIC50 against human TLR8 is under 5.51; against human TLR9, under 4.30; against human TLR7 it was 6.00 to 7.00.

As to `CC(C)c1c(-c2cc(F)c3nccn3c2)[nH]c2ccc(C3CCN(C(=O)C[C@H](C)O)CC3)cc12` [Example 604, (S)-1-(4-(2-(8-fluoroimidazo[1,2-a]pyridin-6-yl)-3-isopropyl-1H-indol-5-yl)piperidin-1-yl)-3-hydroxybutan-1-one], the pIC50 at human TLR8 is 4.30 to 6.00; on human TLR9, under 4.30; against human TLR7 it was over 7.00.

Turning to `CC(C)c1c(-c2cc(F)c3nccn3c2)[nH]c2ccc(C3CCN(C(=O)C[C@@H](C)O)CC3)cc12` [Example 605, (R)-1-(4-(2-(8-fluoroimidazo[1,2-a]pyridin-6-yl)-3-isopropyl-1H-indol-5-yl)piperidin-1-yl)-3-hydroxybutan-1-one], the negative-log IC50 (pIC50) against human TLR8 is 4.30 to 6.00; against human TLR9, under 4.30; at human TLR7, over 7.00.

As to `CC(C)(O)CC(=O)N1CCC(c2ccc3[nH]c(-c4cc(F)c5nccn5c4)c(CC(F)F)c3c2)CC1` [Example 606, 1-(4-(3-(2,2-difluoroethyl)-2-(8-fluoroimidazo[1,2-a]pyridin-6-yl)-1H-indol-5-yl)piperidin-1-yl)-3-hydroxy-3-methylbutan-1-one], the pIC50 on human TLR8 was under 5.51; on human TLR9, 4.30 to 6.00; against human TLR7, 6.00 to 7.00.

`Cc1cn2cc(-c3[nH]c4ccc(C5CCN(C(=O)CC(C)(C)O)CC5)cc4c3CC(F)F)ccc2n1` [Example 607, 1-(4-(3-(2,2-difluoroethyl)-2-(2-methylimidazo[1,2-a]pyridin-6-yl)-1H-indol-5-yl)piperidin-1-yl)-3-hydroxy-3-methylbutan-1-one]: the pIC50 on human TLR8 is 4.30 to 6.00; against human TLR9, under 4.30; against human TLR7, 6.00 to 7.00.

As to `Cc1cn2cc(-c3[nH]c4ccc(C5CCN(C(=O)C[C@H](C)O)CC5)cc4c3CC(F)F)ccc2n1` [Example 608, (S)-1-(4-(3-(2,2-difluoroethyl)-2-(2-methylimidazo[1,2-a]pyridin-6-yl)-1H-indol-5-yl)piperidin-1-yl)-3-hydroxybutan-1-one], the pIC50 on human TLR8 is under 5.51; on human TLR9 it was 4.30 to 6.00; against human TLR7 it was 6.00 to 7.00.

In the case of `Cc1cn2cc(-c3[nH]c4ccc(C5CCN(C(=O)C[C@@H](C)O)CC5)cc4c3CC(F)F)ccc2n1` [Example 609, (R)-1-(4-(3-(2,2-difluoroethyl)-2-(2-methylimidazo[1,2-a]pyridin-6-yl)-1H-indol-5-yl)piperidin-1-yl)-3-hydroxybutan-1-one], the negative logarithm of the IC50 (pIC50) against human TLR8 is under 5.51; on human TLR9 it was 4.30 to 6.00; against human TLR7 it was 6.00 to 7.00.

In the case of `CC(C)c1c(-c2ccnc3[nH]ncc23)[nH]c2ccc(C3CCN(C(=O)c4cn[nH]c4)CC3)cc12` [Example 610, (4-(3-isopropyl-2-(1H-pyrazolo[3,4-b]pyridin-4-yl)-1H-indol-5-yl)piperidin-1-yl)(1H-pyrazol-4-yl)methanone], the pIC50 was 6.00 to 7.00 on human TLR8, 4.30 to 6.00 against human TLR9 and 6.00 to 7.00 on human TLR7.

For the compound `CC(C)c1c(-c2ccnc3[nH]ncc23)[nH]c2ccc(C3CCN(C(=O)c4cscn4)CC3)cc12` [Example 611, (4-(3-isopropyl-2-(1H-pyrazolo[3,4-b]pyridin-4-yl)-1H-indol-5-yl)piperidin-1-yl)(thiazol-4-yl)methanone], the negative logarithm of the IC50 (pIC50) was 6.00 to 7.00 at human TLR8, 4.30 to 6.00 at human TLR9 and over 7.00 at human TLR7.
